Test results from patent US8022103B2, “Ester prodrugs of prostratin and related phorbol compounds” (Salvia Sciences, Inc., priority 2005, dated 2011).
≈ marks a conversion by molar mass, not a printed value. Read-outs that look alike come from different tables or passages of the source.

Columns and labels:
SIVMac251 = experiment: PBMC antiviral assay, SIVMac251; type: cell-based, SIV; conditions: SIVMac251, human PBMCs
Procedure: Compounds SA-101A and SA-101B were tested for antiviral activity against HIV-1 in peripheral blood mononuclear cells (PBMC) acutely infected with the HIV-1 isolates. PBMCs were derived from normal HIV-1 negative donors, and cultured under conditions which promote cell survival and HIV replication. Fresh human blood was obtained commercially from Biological Specialty Corporation (Colmar, Pa.). The low passage clinical isolates HIV-1Ba-L, HIVIIIB, and SIVmac251 were from the NIAID AIDS Research and Reference Reagent Program. Immediately before use, pre-titered aliquot of the viruses were removed from storage in a freezer (−80° C.) and thawed rapidly to room temperature in a biological safety cabinet. Phytohemagglutinin (PHA-P) was obtained from Sigma (St. Louis, Mo.) and recombinant IL-2 was obtained from R&D Systems Inc. (Minneapolis, Minn.). Antiviral activity was tested from a high-test concentration of 100 μM or 100 μg/ml with nine ½-log serial dilutions of the compound to derive applicable IC50 (concentration inhibition virus replication by 50%), IC90 (concentration inhibition virus replication by 90%), TC50 (concentration decreasing cell viability by 50%) and TI (therapeutic index: TC50/IC50) values.
Preparation of PMBC. Fresh Human PBMCs, Seronegative for HIV and HBV, were isolated from screened donors (Interstate Blood Bank, Inc. Memphis, Tenn.). Cells were pelleted/washed 2-3 times by low speed centrifugation and resuspensded in PBS to remove contaminating platelets. The leukophoresed blood was then diluted 1:1 with Dulbecco's Phosphate Buffered Saline (DPBS) and layered over 14 mL of Lymphocyte Separation Medium (LSM; Cellgro® by Mediatech, Inc.; density 1.078+/−0.002 g/ml; Cat. # 85-072-CL) in a 50 mL centrifuge tube and then centrifuged for 30 minutes at 600×g. […]
PMBC assay. […] Pooling (mixing) of mononuclear cells from more than one donor is used to minimize the variability observed between individual donors, which results from quantitative and qualitative differences in HIV infection and overall response to the PHA and IL-2 of primary lymphocyte populations. […]

Human PBMCs = experiment: MTS staining for PBMC viability (cytotoxicity); type: cell-based; conditions: for Cytotoxicity: at the concentrations evaluated
Procedure: PMBC assay. For the standard PBMC assay, PHA-P stimulated cells from at least two normal donors were pooled (mixed together), diluted in fresh medium to a final concentration of 1×10^6 cells/mL, and plated in the interior wells of a 96 well round bottom microplate at 50 μL/well (5×10^4 cells/well) in a standard format developed by the Infectious Disease Research department of Southern Research Institute. Pooling (mixing) of mononuclear cells from more than one donor is used to minimize the variability observed between individual donors, which results from quantitative and qualitative differences in HIV infection and overall response to the PHA and IL-2 of primary lymphocyte populations. Each plate contains virus/cell control wells (cells plus virus), experimental wells (drug plus cells plus virus) and compound control wells ([…], necessary for MTS monitoring of cytotoxicity). Since HIV-1 is not cytopathic to PBMCs, this allows the use of the same assay plate for both antiviral activity and cytotoxicity measurements. Test drug dilutions were prepared at a 2× concentration in microtiter tubes and 100 μL of each concentration was placed in appropriate wells using the standard format. 50 μL of a predetermined dilution of virus stock was placed in each test well (final MOI˜0.1). The PBMC cultures were maintained for seven days following infection at 37° C., 5% CO2. After this period, cell-free supernatant samples were collected for analysis of reverse transcriptase activity and/or HIV p24 content. Following removal of supernatant samples, compound cytotoxicity was measured by addition of MTS to the plates for determination of cell viability. Wells were also examined microscopically and any abnormalities were noted.
MTS staining for PBMC viability to measure cytotoxicity. At assay termination, assay plates were stained with the soluble tetrazolium-based dye MTS (CellTiter 96 Reagent, Promega) to determine cell viability and quantify compound toxicity. The mitochondrial enzymes of metabolically active cells metabolize MTS to yield a soluble formazan product. This allows the rapid quantitative analysis of cell viability and compound cytotoxicity. […] At termination of the assay, 20 μL of MTS reagent was added per well. The microtiter plates were then incubated 4 6 hrs at 37° C. The incubation intervals were chosen based on empirically determined times for optimal dye reduction. Adhesive plate sealers were used in place of the lids, the sealed plate was inverted several times to mix the soluble formazan product and the plate was read spectrophotometrically at 490/650 ηm with a Molecular Devices Vmax or SpectraMaxPlus plate reader.
Data analysis. Using an in-house computer program, IC50 (50%, inhibition of virus replication), IC90 (90%, inhibition of virus replication), IC95 (95%, inhibition of virus replication), TC50 (50% reduction in cell viability), TC90 (90% reduction in cell viability), TC95 (95% reduction in cell viability), and a therapeutic index (TI=TC50/IC50) were determined. AZT (nucleoside reverse transcriptase inhibitor) was used as a positive control antiviral compound.

CC(=O)O[C@@]12C[C@@H](C)[C@@]3(O)[C@@H](C=C(CO)C[C@]4(O)C(=O)C(C)=C[C@@H]34)[C@@H]1C2(C)C [SA-101A, 12-deoxyphorbol 13-acetate]
IC50 (SIVMac251; Simian immunodeficiency virus, PBMC): 0.39 µg/mL (≈ 0.999 µM)
IC90 (SIVMac251; Simian immunodeficiency virus, PBMC, read-out: IC90): 0.9 µg/mL (≈ 2.3 µM)
TC50 (Human PBMCs; HIV-1Ba-L assay plate): >1.00 µg/mL
TC50 (Human PBMCs; HIV-1IIIB assay plate): >1.00 µg/mL
TC50 (Human PBMCs; SIVMac251 assay plate): >1.00 µg/mL
Cytotoxicity (Human PBMCs): no cytotoxicity

CC(=O)OC12CC(C)C3(O)C(C=C(COC(=O)CCC(=O)O)CC4(O)C(=O)C(C)=CC43)C1C2(C)C (centres unmarked) [SA-101B, Prostratin Succinate]
IC90 (SIVMac251; 40% Human AB serum): >1.00 µg/mL
Cytotoxicity (Human PBMCs; 40% human AB serum): no cytotoxicity
TC50 (Human PBMCs; HIV-1Ba-L assay plate, 40% Human AB serum): >1.00 µg/mL
TC50 (Human PBMCs; HIV-1IIIB assay plate, 40% Human AB serum): >1.00 µg/mL
TC50 (Human PBMCs; SIVMac251 assay plate, 40% Human AB serum): >1.00 µg/mL
